Reference: ChEMBL document CHEMBL5042504 (J Med Chem, 2022)
Active and inactive are the calls of the source. The rule behind the calls is not given here.

Legend:
MV4-11 [1] = test: cells; details: Homo sapiens, MV4-11, 48 h
Description: Antiproliferative activity against human MV4-11 AML cells assessed as cell viability measured after 48 hrs by multiplate reader method

Histone deacetylase 1 [2] = target: T1, Histone deacetylase 1 (Homo sapiens, UniProt Q13547); test: Inhibition of human recombinant HDAC1 using Boc-Lys(acetyl)-AMC substrate incubated for 2 hrs by fluorescence based assay
Histone deacetylase 3 [3] = target: T2, Histone deacetylase 3 (Homo sapiens, UniProt O15379); test: Inhibition of human recombinant HDAC3 using Boc-Lys(acetyl)-AMC substrate incubated for 2 hrs by fluorescence based assay
[4] = Cmax in CD-1 mouse at 20 mg/kg, po measured upto 24 hrs; type: ADME, organism-based; parameters: route oral, dose 20 mg/kg, time <=24; details: CD-1, mouse, in vivo, read-out: Cmax
[5] = Half life in CD-1 mouse at 5 mg/kg, iv measured upto 24 hrs; type: ADME, organism-based; details: in vivo
[6] = Half life in CD-1 mouse at 20 mg/kg, po measured upto 24 hrs; type: ADME, organism-based; details: in vivo
[7] = AUC (0 to infinity) in CD-1 mouse at 5 mg/kg, iv measured upto 24 hrs; type: ADME, organism-based; parameters: route intravenous, dose 5 mg/kg, time <=24; details: in vivo
MV4-11 [8] = test: Down regulation of p21 expression in human MV4-11 cells at 200 nM measured after 24 hrs by Western blot analysis; type: functional, cell-based
MV4-11 [9] = test: Cell cycle arrest in human wt-p53 MV4-11 cells assessed as accumulation at G2/M-phase at 200 nM measured after 24 hrs realtive to control; type: functional, cell-based
MV4-11 [10] = test: Induction of apoptosis in human wt-p53 MV4-11 cells assessed as apoptotic cells at 200 nM measured after 24 hrs by FITC Annexin V/propidium iodide staining based flow cytometry (reference value: 9.14%); type: functional
MV4-11 [11] = test: Induction of apoptosis in human wt-p53 MV4-11 cells assessed as apoptotic cells at 500 nM measured after 24 hrs by FITC Annexin V/propidium iodide staining based flow cytometry (reference value: 9.14%); type: functional
HL-60 [12] = test: Cell cycle arrest in human […] HL60 cells assessed as accumulation at G2/M-phase at 200 nM measured after 24 hrs realtive to control; type: functional, cell-based
HL-60 [13] = test: Cell cycle arrest in human […] HL60 cells assessed as accumulation at G2/M-phase at 500 nM measured after 24 hrs realtive to control; type: functional, cell-based
[14] = Antitumor activity against human MV4-11 cells xenografted in BALB/c mouse assessed as tumor growth inhibition at 2 to 4 mg/kg, po administered for 24 days; type: functional; details: dose 2-4 mg/kg, time 24 day
MV4-11 [15] = test: Antitumor activity against human MV4-11 cells xenografted in BALB/c mouse assessed as inhibition of tumor growth at single administration for 4 mg/kg, po incubated for 0.5 to 8 hrs; type: functional, organism-based; details: time 0.5-8 hrs
[16] = Drug uptake in BALB/c mouse xenografted with human AML MV4-11 cells assessed as tumor tissue at 4mg/kg, po measured after 0.5 to 6 hrs by LC-MS/MS; type: ADME, organism-based; details: in vivo, time 0.5-6 hrs
[17] = Drug uptake in BALB/c mouse xenografted with human AML MV4-11 cells assessed as tumor tissue at 4 mg/kg ip measured after 0.5 to 6 hrs by LC-MS/MS; type: ADME, organism-based; details: in vivo, time 0.5-6 hrs
[18] = Plasma concentration in BALB/c mouse xenografted with human AML MV4-11 cells at 4 mg/kg, po; type: ADME, organism-based; details: in vivo
Histone deacetylase 1 [19] = target: T1, Histone deacetylase 1; test: Mixed type inhibition of human HDAC1 (unknown origin) by Lineweaver-Burk plot analysis
Histone deacetylase 3 [20] = target: T2, Histone deacetylase 3; test: Non competitive type inhibition of human HDAC3 (unknown origin) by Lineweaver-Burk plot analysis
Histone deacetylase 1 [21] = target: T1, Histone deacetylase 1; test: Inhibition of HDAC1 (unknown origin)preincubated upto 2 hrs by fluorescence based assay; details: time hrs <=2
Histone deacetylase 3 [22] = target: T2, Histone deacetylase 3; test: Inhibition of HDAC3(unknown origin) preincubated upto 2 hrs by fluorescence based assay; details: time hrs <=2
MV4-11 [23] = test: Antitumor activity against human MV4-11 cells xenografted in balb/c mouse assessed as accumulation of AcHH3 protein level at 4 mg/kg, po measured after 2 hrs; type: functional, organism-based
MV4-11 [24] = test: Antitumor activity against human MV4-11 cells xenografted in balb/c mouse assessed as accumulation of AcHH4 protein level at 4 mg/kg, po measured after 2 hrs; type: functional, organism-based
[25] = Drug distribution in BALB/c mouse spleen measured at 4 mg/kg, po or ip after 0.5 hrs; type: ADME, organism-based; details: in vivo
[26] = Drug distribution in BALB/c mouse kidney measured at 4 mg/kg, po or ip after 0.5 hrs after 0.5 hrs; type: ADME, organism-based; details: in vivo
[27] = Drug distribution in BALB/c mouse gut measured at 4 mg/kg, po or ip after 0.5 hrs after 0.5 hrs; type: ADME, organism-based; details: in vivo
[28] = Drug distribution in BALB/c mouse spleen measured at 4 mg/kg, po or ip after 2 to 8 hrs after 0.5 hrs; type: ADME, organism-based; details: in vivo, time 2-8 hrs
[29] = Drug distribution in BALB/c mouse liver measured at 4 mg/kg, po or ip after 2 to 8 hrs after 0.5 hrs; type: ADME, organism-based; details: in vivo, time 2-8 hrs
[30] = Drug distribution in BALB/c mouse kidney measured at 4 mg/kg, po or ip after 2 to 8 hrs after 0.5 hrs; type: ADME, organism-based; details: in vivo, time 2-8 hrs
[31] = Drug distribution in BALB/c mouse gut measured at 4 mg/kg, po or ip after 2 to 8 hrs after 0.5 hrs; type: ADME, organism-based; details: in vivo, time 2-8 hrs
[32] = Drug distribution in BALB/c mouse brain measured at 4 mg/kg, po or ip after 2 to 8 hrs after 0.5 hrs; type: ADME, organism-based; details: in vivo, time 2-8 hrs
[33] = Drug distribution in BALB/c mouse lung measured at 4 mg/kg, po or ip after 2 to 8 hrs after 0.5 hrs; type: ADME, organism-based; details: in vivo, time 2-8 hrs
[34] = Drug metabolism in BALB/c mouse liver assessed as metabolized compound; type: ADME, tissue-based
[35] = Toxicity in BALB/c mouse assessed as induction of pathological changes in liver by H and E staining based analysis; type: tissue-based; details: in vivo
[36] = Antitumor activity against human MV4-11 cells xenografted in BALB/c mouse assessed as growth inhibition at 2 to 4 mg/kg, po ad; type: functional; details: dose 2-4 mg/kg, time 24 day
[37] = Drug distribution in tumor of BALB/c mouse xenografted with human MV4-11 cells assessed as measured after 8 hrs; type: ADME; details: read-out: Drug uptake

T1 sequence (Q13547 whole entry): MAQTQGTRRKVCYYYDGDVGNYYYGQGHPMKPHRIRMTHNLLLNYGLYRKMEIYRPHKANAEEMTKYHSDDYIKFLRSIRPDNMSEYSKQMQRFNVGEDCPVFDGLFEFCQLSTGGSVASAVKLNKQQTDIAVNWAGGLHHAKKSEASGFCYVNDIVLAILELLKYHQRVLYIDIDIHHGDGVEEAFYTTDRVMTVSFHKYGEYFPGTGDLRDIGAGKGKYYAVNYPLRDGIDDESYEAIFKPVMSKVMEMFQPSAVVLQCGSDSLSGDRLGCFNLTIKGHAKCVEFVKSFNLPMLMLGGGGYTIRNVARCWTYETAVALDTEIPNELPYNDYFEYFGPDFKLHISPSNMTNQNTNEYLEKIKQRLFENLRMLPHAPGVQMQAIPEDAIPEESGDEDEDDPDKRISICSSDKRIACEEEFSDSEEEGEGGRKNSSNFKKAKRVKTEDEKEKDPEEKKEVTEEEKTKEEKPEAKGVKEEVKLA
T2 sequence (O15379 whole entry): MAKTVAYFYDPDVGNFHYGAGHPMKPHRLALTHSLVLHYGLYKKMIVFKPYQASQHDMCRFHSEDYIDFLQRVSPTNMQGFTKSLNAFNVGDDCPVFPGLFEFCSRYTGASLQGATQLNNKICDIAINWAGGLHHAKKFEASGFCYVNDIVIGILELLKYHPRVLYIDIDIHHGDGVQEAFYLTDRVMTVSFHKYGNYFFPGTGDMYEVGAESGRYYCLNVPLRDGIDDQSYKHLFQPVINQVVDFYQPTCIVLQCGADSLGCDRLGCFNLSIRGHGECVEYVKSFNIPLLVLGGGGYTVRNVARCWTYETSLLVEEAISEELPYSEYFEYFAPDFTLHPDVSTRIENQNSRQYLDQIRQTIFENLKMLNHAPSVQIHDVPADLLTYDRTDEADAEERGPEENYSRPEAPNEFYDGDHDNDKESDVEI

For `CCCNNC(=O)c1ccc(CNC(=O)/C=C/c2ccccc2)cc1`, the IC50 (MV4-11 [1]) was 36.4 nM.
For `CCCNNC(=O)c1ccc(CNC(=O)c2cc3ccccc3[nH]2)cc1`, the IC50 (Histone deacetylase 1 [2]) was 3.01 nM, the IC50 (Histone deacetylase 3 [3]) was 0.44 nM and the Cmax [4] was 38800 ng/mL. The half-life [5] was 6.75 h, the half-life [6] was 2.58 h and the AUC [7] was 32179 ng·h/mL. For the same molecule, the Activity (MV4-11 [8]) was “Active”, the Activity (MV4-11 [9]) was “Active” and the Activity (MV4-11 [10]) was 71.2%. For the same molecule, the Activity (MV4-11 [11]) was 88.1%, the Activity (HL-60 [12]) was “Active” and the Activity (HL-60 [13]) was “Active”. For the same molecule, the TGI [14] was 78.9%, the Activity (MV4-11 [15]) was “Active” and the Drug uptake [16] was “Active”. For the same molecule, the Drug uptake [17] was “Active”, the Drug uptake [18] was “Active” and the IC50 (Histone deacetylase 1 [19]) was 1.5 nM. The IC50 (Histone deacetylase 3 [20]) was 0.56 nM, the Activity (Histone deacetylase 1 [21]) was “Active” and the Activity (Histone deacetylase 3 [22]) was “Active”. For the same molecule, the Activity (MV4-11 [23]) was “Active”, the Activity (MV4-11 [24]) was “Active” and the Drug uptake [25] was “Active”. The Drug uptake [26] was “Active”, the Drug uptake [27] was “Active” and the Drug uptake [28] was “Active”. For the same molecule, the Drug uptake [29] was “Active”, the Drug uptake [30] was “Active” and the Drug uptake [31] was “Active”. For the same molecule, the Drug uptake [32] was “Active”, the Drug uptake [33] was “Active” and the Drug metabolism [34] was “Metabolite_Detected”. For the same molecule, the Activity [35] was “Non-Toxic”, the T/C [36] was 22.2% and the concentration at 8 h [37] was 151 ng/g.
